{"source": "patent US20260053931A1", "about": "“MDM2 TARGETING PROTACS” (THE WISTAR INSTITUTE OF ANATOMY AND BIOLOGY, priority 2023, published 2026)", "key": {"RS4; 11": {"system": "RS4; 11", "experiment": "Cell death of other cancer cell lines: RS4; 11", "assay_type": "cell-based", "settings": "Homo sapiens, 11, B-ALL", "protocol": "(§1) The PROTACs prepared herein were tested for their use in other cancer cell lines to determine activity in multiple different types of cancer."}, "MOLT1": {"system": "MOLT1", "experiment": "Cell death of other cancer cell lines: MOLT1", "assay_type": "cell-based", "settings": "Homo sapiens; MOLT1, T-ALL", "protocol": "as §1"}, "PC9": {"system": "PC9", "experiment": "Cell death of other cancer cell lines: PC9", "assay_type": "cell-based", "settings": "Homo sapiens, PC-9; PC9, Lung adenocarcinoma", "protocol": "as §1"}, "[1]": {"experiment": "In vivo tolerability, nude mice", "design": "species or system mouse", "settings": "YX-02-030 50 mg/kg IP, YX-02-228 30 mg/kg IP, once daily", "protocol": "FIGS. 25A & 25B show the in vivo tolerability tests conducted with the 2 lead Mdm2 PROTACs to evaluate tolerated doses and effects on normal tissues. Nude mice were treated with Mdm2 PROTACs, YX-02-030 (50 mg/kg; IP) and YX-02-228 (30 mg/kg; IP) once daily for 14 days. […] Fresh, surgically-resected tumor from five TNBC patients was obtained, and 80% were from Black/African American patients.\nIn vivo tolerability tests were conducted with the 2 lead Mdm2 PROTACs to evaluate tolerated doses and effects on normal tissues. Nude mice were treated with Mdm2 PROTACs, YX-02-030 (50 mg/kg; IP) and YX-02-228 (30 mg/kg; IP) once daily for 8 days."}, "Ramos": {"system": "Ramos", "experiment": "Cell death of other cancer cell lines: Ramos", "assay_type": "cell-based", "settings": "Homo sapiens, Burkitt lymphoma", "protocol": "as §1"}, "Mdm2": {"biological_target": "Mdm2 (Homo sapiens, UniProt Q00987)", "sequence (Q00987 whole entry)": "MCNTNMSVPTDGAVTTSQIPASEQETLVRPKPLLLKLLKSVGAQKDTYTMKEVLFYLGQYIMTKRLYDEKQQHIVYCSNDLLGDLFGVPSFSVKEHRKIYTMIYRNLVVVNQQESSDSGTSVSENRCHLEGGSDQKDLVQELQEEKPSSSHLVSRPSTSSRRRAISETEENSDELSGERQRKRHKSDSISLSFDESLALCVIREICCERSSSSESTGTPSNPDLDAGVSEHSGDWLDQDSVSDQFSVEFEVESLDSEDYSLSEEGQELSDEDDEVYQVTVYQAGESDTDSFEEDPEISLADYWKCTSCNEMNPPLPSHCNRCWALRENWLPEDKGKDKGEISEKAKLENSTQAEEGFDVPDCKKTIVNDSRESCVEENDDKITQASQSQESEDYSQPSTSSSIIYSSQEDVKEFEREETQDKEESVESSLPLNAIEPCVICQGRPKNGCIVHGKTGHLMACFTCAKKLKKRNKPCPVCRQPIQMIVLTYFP", "experiment": "In-Cell Western, mut p53 MDA-MB-231 cell line", "assay_type": "cell-based", "design": "endogenous in cells; host or cells: MCF7 (A8); MDA-MB-231 (A9)", "settings": "mutant p53 MDA-MB-231", "protocol": "Cells were seeded at decreasing cell number from 15K cells to 2K cells. The Mdm2 primary antibody was tested at 1:200 and 1:300 dilution. The secondary antibody conjugated to IRDye800CW was used with 1:800 dilution, and CellTag 700 Stain was used at 1:1000 dilution as manufacture recommended. The linearity of cell number versus signal was generated with Prism. The signal over background ratio was also calculated.\nThe potential PROTACs were evaluated in the wt p53 MCF7 cell line and in the mut p53 MDA-MB-231 cell line. Importantly these were compared to MD-224, which was recently reported to potently degrade Mdm2 in RS4; 11 leukemia cells (Li et al., 2019). Assay linearity was performed confirming a strong 4-fold signal to noise in the assay. A series of bi-functional molecules were then treated and evaluated for protein level in the assay over time from 2 h-48 h. […] In this wt p53 cancer cell line the stabilization of p53 (FIG. 15B), and subsequent p53-mediated transcriptional upregulation of Mdm2 make it difficult to observe degradation. […] These compounds were evaluated in the mutant p53 cancer cells. […] In this cell line, it takes approximately 16-24 h to detect the degradation. […] The difference in the molecules is that MD-224 utilizes a CRBN recruiting ligand."}, "SU-DHL-6": {"system": "SU-DHL-6", "experiment": "Cell death of other cancer cell lines: SU-DHL-6", "assay_type": "cell-based", "settings": "Homo sapiens; SU-DHL-6, Diffuse large B cell lymphoma", "protocol": "as §1"}, "SUP-T1": {"system": "SUP-T1", "experiment": "Cell death of other cancer cell lines: SUP-T1", "assay_type": "cell-based", "settings": "Homo sapiens; SUP-T1, T-ALL", "protocol": "as §1"}, "SU-DHL-8": {"system": "SU-DHL-8", "experiment": "Cell death of other cancer cell lines: SU-DHL-8", "assay_type": "cell-based", "settings": "Homo sapiens; SU-DHL-8, Diffuse large B cell lymphoma", "protocol": "as §1"}, "OVCAR4": {"system": "OVCAR4", "experiment": "Cell death of other cancer cell lines: OVCAR4", "assay_type": "cell-based", "settings": "Homo sapiens, OVCAR-4; OVCAR4, Ovarian", "protocol": "as §1"}, "Hut-78": {"system": "Hut-78", "experiment": "Cell death of other cancer cell lines: Hut-78", "assay_type": "cell-based", "settings": "Homo sapiens, HuT78; Hut-78, T cell lymphoma", "protocol": "as §1"}, "HH": {"system": "HH", "experiment": "Cell death of other cancer cell lines: HH", "assay_type": "cell-based", "settings": "Homo sapiens, T cell lymphoma", "protocol": "as §1"}, "SEM cells": {"system": "SEM cells", "experiment": "Cell death of other cancer cell lines: SEM", "assay_type": "cell-based", "settings": "Homo sapiens, B-ALL", "protocol": "as §1"}, "SKOV3": {"system": "SKOV3", "experiment": "Cell death of other cancer cell lines: SKOV3", "assay_type": "cell-based", "settings": "Homo sapiens, SK-OV-3; SKOV3, Ovarian", "protocol": "as §1"}, "H1299": {"system": "H1299", "experiment": "Cell death of other cancer cell lines: H1299", "assay_type": "cell-based", "settings": "Homo sapiens, NCI-H1299; H1299, Lung adenocarcinoma", "protocol": "as §1"}, "[2]": {"biological_target": "T1, human cereblon (CRBN) complex (Homo sapiens, UniProt Q96SW2)", "T1 construct": "purchased R & D systems", "T1 sequence (Q96SW2 whole entry)": "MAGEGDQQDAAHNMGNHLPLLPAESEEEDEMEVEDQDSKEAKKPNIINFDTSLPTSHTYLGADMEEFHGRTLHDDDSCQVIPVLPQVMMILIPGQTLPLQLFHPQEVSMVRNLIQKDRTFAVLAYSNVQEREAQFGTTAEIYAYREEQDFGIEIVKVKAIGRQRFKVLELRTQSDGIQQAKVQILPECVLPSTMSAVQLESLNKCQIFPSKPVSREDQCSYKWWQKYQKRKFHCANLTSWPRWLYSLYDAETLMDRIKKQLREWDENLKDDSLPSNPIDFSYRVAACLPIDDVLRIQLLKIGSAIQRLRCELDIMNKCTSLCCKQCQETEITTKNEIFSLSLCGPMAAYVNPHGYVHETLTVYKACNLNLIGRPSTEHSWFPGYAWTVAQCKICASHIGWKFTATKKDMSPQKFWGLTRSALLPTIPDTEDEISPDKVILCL", "T1 sequence (Q16531 whole entry partner)": "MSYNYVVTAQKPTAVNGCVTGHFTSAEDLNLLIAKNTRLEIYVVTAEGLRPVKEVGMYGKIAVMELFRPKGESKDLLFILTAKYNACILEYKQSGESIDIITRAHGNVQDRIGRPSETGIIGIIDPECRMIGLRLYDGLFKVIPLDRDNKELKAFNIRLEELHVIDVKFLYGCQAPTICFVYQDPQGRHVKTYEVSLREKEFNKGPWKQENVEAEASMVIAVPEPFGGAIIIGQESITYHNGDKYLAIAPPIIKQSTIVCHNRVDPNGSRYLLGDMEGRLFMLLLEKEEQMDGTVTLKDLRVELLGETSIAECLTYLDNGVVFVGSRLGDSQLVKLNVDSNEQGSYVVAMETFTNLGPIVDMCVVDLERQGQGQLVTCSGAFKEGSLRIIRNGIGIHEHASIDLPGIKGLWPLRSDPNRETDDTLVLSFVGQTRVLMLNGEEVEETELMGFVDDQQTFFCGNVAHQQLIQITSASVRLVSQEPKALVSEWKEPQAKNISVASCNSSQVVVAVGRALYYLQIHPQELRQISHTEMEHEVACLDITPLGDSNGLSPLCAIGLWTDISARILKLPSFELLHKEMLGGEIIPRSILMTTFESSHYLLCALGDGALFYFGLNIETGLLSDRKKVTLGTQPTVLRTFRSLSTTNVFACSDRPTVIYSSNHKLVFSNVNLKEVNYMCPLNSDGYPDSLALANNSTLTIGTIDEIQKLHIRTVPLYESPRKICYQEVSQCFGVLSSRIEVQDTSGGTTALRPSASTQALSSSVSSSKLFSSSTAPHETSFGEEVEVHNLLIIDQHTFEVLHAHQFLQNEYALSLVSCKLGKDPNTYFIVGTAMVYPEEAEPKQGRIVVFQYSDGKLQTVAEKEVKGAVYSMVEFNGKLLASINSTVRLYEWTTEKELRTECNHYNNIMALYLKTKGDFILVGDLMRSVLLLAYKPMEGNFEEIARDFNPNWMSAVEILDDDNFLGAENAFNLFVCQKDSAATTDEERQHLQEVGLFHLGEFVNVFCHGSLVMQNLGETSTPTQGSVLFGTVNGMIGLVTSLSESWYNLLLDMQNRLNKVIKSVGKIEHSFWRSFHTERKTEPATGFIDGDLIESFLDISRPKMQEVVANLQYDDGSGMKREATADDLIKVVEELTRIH", "T1 sequence (Q13619 whole entry partner)": "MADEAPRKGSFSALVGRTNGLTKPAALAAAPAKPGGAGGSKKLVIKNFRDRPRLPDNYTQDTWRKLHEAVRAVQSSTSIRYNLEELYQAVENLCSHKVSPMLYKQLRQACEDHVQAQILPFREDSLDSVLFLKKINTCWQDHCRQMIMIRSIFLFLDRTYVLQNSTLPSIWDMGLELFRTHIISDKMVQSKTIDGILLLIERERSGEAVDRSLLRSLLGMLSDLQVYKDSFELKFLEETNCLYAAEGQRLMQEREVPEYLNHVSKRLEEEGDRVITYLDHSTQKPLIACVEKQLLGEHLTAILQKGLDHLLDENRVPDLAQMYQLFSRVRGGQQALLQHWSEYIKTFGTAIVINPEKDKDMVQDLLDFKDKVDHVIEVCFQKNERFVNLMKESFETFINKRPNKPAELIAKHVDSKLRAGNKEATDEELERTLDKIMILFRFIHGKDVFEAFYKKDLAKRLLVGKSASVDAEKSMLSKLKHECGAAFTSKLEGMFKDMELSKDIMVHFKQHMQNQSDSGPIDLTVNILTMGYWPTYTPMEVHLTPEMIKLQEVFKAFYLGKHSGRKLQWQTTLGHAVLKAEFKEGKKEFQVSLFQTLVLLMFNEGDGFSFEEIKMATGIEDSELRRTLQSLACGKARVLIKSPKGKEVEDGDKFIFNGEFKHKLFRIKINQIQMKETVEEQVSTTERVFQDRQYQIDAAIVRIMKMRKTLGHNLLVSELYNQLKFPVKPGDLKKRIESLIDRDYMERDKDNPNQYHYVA", "T1 sequence (P62877 whole entry partner)": "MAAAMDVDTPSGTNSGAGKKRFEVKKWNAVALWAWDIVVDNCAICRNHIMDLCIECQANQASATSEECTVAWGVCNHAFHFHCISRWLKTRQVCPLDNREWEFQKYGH", "experiment": "HTRF binding assay for Cereblon (Table 2)", "from_the_text": "Biochemical assays in 384-well format have established to assess the binding of newly synthesized PROTACs to the appropriate E3 ligase using HTRF technology. In these assays an anti-HIS antibody conjugated to terbium was used as the donor fluor, and either a Cy5 labeled small molecule probe, or a biotinylated peptide that is bound to a streptavidin acceptor.\nCereblon: Recombinant human cereblon (CRBN) complex, including CUL4A, RBX1, DDB1 and CRBN is purchased from R & D systems. This four-member protein complex has an N-terminal HIS tag on the CUL4A subunit. The CRBN complex is diluted in assay buffer containing anti-HIS-Tb Cryptate Gold (CisBio) and is added to low volume 384-well plates. Test compounds in 100% DMSO are added to the plates followed by the Cy5-labeled lenolidamide probe. After 1 hour the HTRF signal is measured on the Envision. Data are normalized to % inhibition. The typical signal-to-noise is 5:1. Bi-functional molecules containing the Cereblon ligands are tested in TABLE 2 (see YX-02-041)."}, "Raji": {"system": "Raji", "experiment": "Cell death of other cancer cell lines: Raji", "assay_type": "cell-based", "settings": "Homo sapiens, Burkitt lymphoma, values may change up to ±1-2 μM depending on the cell density", "protocol": "as §1"}, "mut p53 MDA-MD-231 cells": {"system": "mut p53 MDA-MD-231 cells", "experiment": "Live cell count with CellTag700 Stain in ICW format", "settings": "after 24 h and 48 h treatment", "protocol": "Cells are seeded in 96 half area well plates (black clear bottom) and cultured overnight. Then they are treated with compounds, fixed with 4% paraformaldehyde for 20 minutes, and permeabilized in 0.1% Triton. They are then treated with the primary antibody and secondary antibody conjugated to IRDye800CW or treated with CellTag 700 Stain. The plates are then scanned on the OdysseyCLX and the data processed to provide a dose response curve.\nSince genetic deletion of Mdm2 induces p73 and induces apoptosis in p53 mutant and deficient cancer cells, YX-02-030 and YX-02-228 were evaluated for their effect on cell viability. First, the CellTag700 Stain was utilized to count the number of live cells in the ICW format."}}}
{"smiles": "CCOc1cc(C(C)(C)C)ccc1C1=N[C@](C)(c2ccc(Cl)cc2)[C@](C)(c2ccc(Cl)cc2)N1C(=O)N1CCN(CC(=O)NCCCNC(=O)COc2ccc3c(c2)CN(C(=O)[C@H](NC(=O)[C@@H](C)NC)C(C)(C)C)[C@@H](C(=O)N[C@H]2CCCc4ccccc42)C3)CC1", "note": "[YX-02-228, (R)-7-(2-((3-(2-(4-((4R,5S)-2-(4-(tert-butyl)-2-ethoxyphenyl)-4,5-bis(4-chlorophenyl)-4,5-dimethyl-4,5-dihydro-1H-imidazole-1-carbonyl)piperazin-1-yl)acetamido)propyl)amino)-2-oxoethoxy)-2-((R)-3,3-dimethyl-2-((R)-2-(methylamino)propanamido)butanoyl)-N-((S)-1,2,3,4-tetrahydronaphthalen-1-yl)-1,2,3,4-tetrahydroisoquinoline-3-carboxamide]", "values": [{"measurement": "IC50", "setting": "RS4; 11", "result": 2500, "unit": "nM"}, {"measurement": "IC50", "setting": "MOLT1", "result": 2700, "unit": "nM"}, {"measurement": "IC50", "setting": "PC9", "result": 4.6, "unit": "µM"}, {"measurement": "blood counts", "setting": "[1]", "result": "no significant change"}, {"measurement": "body weight", "setting": "[1]", "result": "no significant change in body weight"}, {"measurement": "clinical observations for spleen and bone marrow", "setting": "[1]", "result": "no adverse clinical observations"}, {"measurement": "IC50", "setting": "Ramos", "result": 5.5, "unit": "µM"}, {"measurement": "Mdm2 degradation", "setting": "Mdm2", "result": "degrade Mdm2"}, {"measurement": "IC50", "setting": "SU-DHL-6", "result": 2.9, "unit": "µM"}, {"measurement": "IC50", "setting": "SUP-T1", "result": 6, "unit": "µM"}, {"measurement": "IC50", "setting": "SU-DHL-8", "result": 4.6, "unit": "µM"}, {"measurement": "IC50", "setting": "OVCAR4", "result": 4.8, "unit": "µM"}, {"measurement": "IC50", "setting": "Hut-78", "result": 8.8, "unit": "µM"}, {"measurement": "IC50", "setting": "HH", "result": 5.5, "unit": "µM"}, {"measurement": "IC50", "setting": "SEM cells", "result": 4.2, "unit": "µM"}, {"measurement": "IC50", "setting": "SKOV3", "result": 3.2, "unit": "µM"}, {"measurement": "IC50", "setting": "H1299", "result": 5.3, "unit": "µM"}, {"measurement": "IC50", "setting": "[2]", "result": "> 10", "unit": "µM"}, {"measurement": "IC50", "setting": "Raji", "result": 5.9, "unit": "µM"}, {"measurement": "cytotoxic effect, number of live cells", "setting": "mut p53 MDA-MD-231 cells", "result": "potent cytotoxic effects"}]}
{"smiles": "CCOc1cc(C(C)(C)C)ccc1C1=N[C@](C)(c2ccc(Cl)cc2)[C@](C)(c2ccc(Cl)cc2)N1C(=O)N1CCN(CC(=O)NCCOCCOCCOCC(=O)N[C@H](C(=O)N2C[C@H](O)C[C@H]2C(=O)NCc2ccc(-c3scnc3C)cc2)C(C)(C)C)CC1", "note": "(racemic) [YX-02-030]", "values": [{"measurement": "IC50", "setting": "RS4; 11", "result": 1900, "unit": "nM"}, {"measurement": "IC50", "setting": "MOLT1", "result": 2600, "unit": "nM"}, {"measurement": "IC50", "setting": "PC9", "result": 4.5, "unit": "µM"}, {"measurement": "blood counts", "setting": "[1]", "result": "no significant change"}, {"measurement": "body weight", "setting": "[1]", "result": "no significant change in body weight"}, {"measurement": "clinical observations for spleen and bone marrow", "setting": "[1]", "result": "no adverse clinical observations"}, {"measurement": "IC50", "setting": "Ramos", "result": 3.1, "unit": "µM"}, {"measurement": "Mdm2 degradation", "setting": "Mdm2", "result": "degrade Mdm2"}, {"measurement": "IC50", "setting": "SU-DHL-6", "result": 3.6, "unit": "µM"}, {"measurement": "IC50", "setting": "SUP-T1", "result": 5.7, "unit": "µM"}, {"measurement": "IC50", "setting": "SU-DHL-8", "result": 1.9, "unit": "µM"}, {"measurement": "IC50", "setting": "OVCAR4", "result": 4.6, "unit": "µM"}, {"measurement": "IC50", "setting": "Hut-78", "result": 9, "unit": "µM"}, {"measurement": "IC50", "setting": "HH", "result": 6.3, "unit": "µM"}, {"measurement": "IC50", "setting": "SEM cells", "result": 3.2, "unit": "µM"}, {"measurement": "IC50", "setting": "SKOV3", "result": 5.7, "unit": "µM"}, {"measurement": "IC50", "setting": "H1299", "result": 4.2, "unit": "µM"}, {"measurement": "IC50", "setting": "[2]", "result": "> 10", "unit": "µM"}, {"measurement": "IC50", "setting": "Raji", "result": 2.8, "unit": "µM"}, {"measurement": "cytotoxic effect, number of live cells", "setting": "mut p53 MDA-MD-231 cells", "result": "potent cytotoxic effects"}]}
